Data from patent US20250214977A1, “STAT6 INHIBITORS AND USES THEREOF” (Kymera Therapeutics, Inc., priority 2024, published 2025).

Tested on: Phosphorylation of STAT6 in human A549 cells
Experiment: Phosphorylated STAT6 (pSTAT6) flow cytometry assay in human A549 cells
Type: cell-based
Conditions: read-out: STAT6 IL4 pSTAT6 assay in A549 cells: Average IC50
Source text: Example 3. Phosphorylated STAT6 (pSTAT6) Flow Cytometry Assay in Human A549 Cells
Phosphorylation of STAT6 in human A549 cells was quantitatively measured using flow cytometry technology.

Q: For COc1ccccc1-c1cc(C2=CCCN(C(=O)CCn3ccnn3)C2)c(F)c2[nH]c(C(=O)N3CCN(C4CC(F)(F)C4)CC3)cc12 [Example I-501], which IC50 is on record?
A: 10000 to 100000 nM

Q: How did the IC50 turn out when COc1cnccc1-c1cc(C2=CCCN(C(=O)CCn3ccnn3)C2)c(F)c2[nH]c(C(=O)N3Cc4cnn(C)c4C3)cc12 [Example I-502] was run?
A: 10000 to 100000 nM

Q: For COc1ccccc1-c1cc(C2=CCCN(C(=O)CCn3cccn3)C2)c(F)c2[nH]c(C(=O)N3Cc4cnn(C)c4C3)cc12 [Example I-503], which IC50 is on record?
A: 10000 to 100000 nM

Q: CCn1cc2c(n1)CN(C(=O)c1cc3c(-c4ccccc4OC)cc(C4=CCCN(C(=O)CCn5ccnn5)C4)c(F)c3[nH]1)C2 [Example I-505] was tested. Which IC50 did it give?
A: 10000 to 100000 nM

Q: How did the IC50 turn out when COc1ccccc1-c1cc(C(=O)N2CCN(c3ncc(F)cc3OC)CC2)cc2cc(C3=CCCN(C(=O)CCn4ccnn4)C3)n(CC3CC3)c12 [Example I-506] was run?
A: 10000 to 100000 nM

Q: Which IC50 does the source give for CCn1ncc2c1CN(C(=O)c1cc3c(-c4ccccc4OC)cc(C4=CCCN(C(=O)CCn5ccnn5)C4)c(F)c3[nH]1)C2 [Example I-507] here?
A: 10000 to 100000 nM

Q: With COc1ccccc1-c1cc(C2=CCCN(C(=O)CCn3ccnn3)C2)c(F)c2[nH]c(C(=O)N3CCN(c4[nH]ncc4OC)CC3)cc12 [Example I-508] as the compound, how does the IC50 read?
A: < 100 nM

Q: With COc1ccccc1-c1cc(C2=CCCN(C(=O)CCn3ccnn3)C2)c(F)c2[nH]c(C(=O)N3Cc4c(C)nn(C)c4C3)cc12 [Example I-509] as the compound, how does the IC50 read?
A: < 100 nM

Q: How did the IC50 turn out when COc1ccccc1-c1cc(C2=CCCN(C(=O)CCn3ccnn3)C2)c(F)c2[nH]c(C(=O)N3CCN(c4ncc(F)c(F)c4OC)CC3)cc12 [Example I-510] was run?
A: < 100 nM

Q: Which IC50 does the source give for COc1ccccc1-c1cc(C2=CCCN(C(=O)CCn3ccnn3)C2)c(F)c2[nH]c(C(=O)N3CC=C(C4CC4)CC3)cc12 [Example I-511] here?
A: < 100 nM

Q: With COc1ccccc1-c1cc(C2CN(C(=O)CCn3ccnn3)CC(F)(F)C2)c(F)c2[nH]c(C(=O)N3Cc4cnn(C)c4C3)cc12 (stereo not drawn) [Example I-512] as the compound, how does the IC50 read?
A: < 100 nM

Q: COc1ccncc1-c1cc(C2CN(C(=O)CCn3ccnn3)CC(F)(F)C2)c(F)c2[nH]c(C(=O)N3CCN(c4ncc(F)cc4OC)CC3)cc12 (stereo not drawn) [Example I-513] was tested. Which IC50 did it give?
A: < 100 nM

Q: CCc1cc(C)ncc1-c1cc(C2=CCCN(C(=O)CCn3cccn3)C2)c(F)c2[nH]c(C(=O)N3CCN(c4nc(C)ccc4OC)CC3)cc12 [Example I-514] was tested. Which IC50 did it give?
A: < 100 nM

Q: CCc1cc(C)ncc1-c1cc(C2=CCCN(C(=O)CCn3cccn3)C2)c(F)c2[nH]c(C(=O)N3CCN(c4cc(C)ccc4OC)CC3)cc12 [Example I-515] was tested. Which IC50 did it give?
A: < 100 nM

Q: COc1ccccc1-c1cc(C2=CCCN(C(=O)CCn3ccnn3)C2)c(F)c2[nH]c(C(=O)N3CCc4cnn(C)c4C3)cc12 [Example I-516] was tested. Which IC50 did it give?
A: < 100 nM

Q: How did the IC50 turn out when CCc1nc(C)ccc1-c1cc(C(=O)N2CCN(c3ncc(F)cc3OC)CC2)cc2cc(C3=CCCN(C(=O)CCn4ccnn4)C3)n(CC3CC3)c12 [Example I-517] was run?
A: < 100 nM

Q: How did the IC50 turn out when COc1ccccc1-c1cc(C2=CCCN(C(=O)CCn3ccnn3)C2)c(F)c2[nH]c(C(=O)N3CCc4c(cnn4C)C3)cc12 [Example I-518] was run?
A: < 100 nM

Q: With CCc1cc(C)ncc1-c1cc(C2=CCCN(C(=O)CCn3ccnn3)C2)c(F)c2[nH]c(C(=O)N3CCN(c4nccnc4OC)CC3)cc12 [Example I-519] as the compound, how does the IC50 read?
A: < 100 nM

Q: For COc1ccccc1-c1cc(C(=O)N2CCN(c3ncc(F)cc3OC)CC2)cc2cc(C3=CCCN(C(=O)CCn4ccnn4)C3)n(CC(C)C)c12 [Example I-521], which IC50 is on record?
A: < 100 nM

Q: With CCc1nc(C)ccc1-c1cc(C(=O)N2CCN(c3ncc(F)cc3OC)CC2)cc2cc(C3=CCCN(C(=O)CCn4cccn4)C3)n(CC3CC3)c12 [Example I-522] as the compound, how does the IC50 read?
A: < 100 nM

Q: Which IC50 does the source give for CCc1nc(C)ccc1-c1cc(C(=O)N2CCN(c3ncc(F)cc3OC)CC2)cc2cc(C3=CCCN(C(=O)CCc4nccs4)C3)n(CC3CC3)c12 [Example I-523] here?
A: < 100 nM

Q: For CCc1nc(C)ccc1-c1cc(C(=O)N2CCN(c3ncc(F)cc3OC)CC2)cc2cc(C3=CCCN(C(=O)CCn4ccnn4)C3)n(CC(C)C)c12 [Example I-524], which IC50 is on record?
A: < 100 nM

Q: How did the IC50 turn out when CCc1cc(C)ncc1-c1cc(C2=CCCN(C(=O)CCc3nccs3)C2)c(F)c2[nH]c(C(=O)N3CCN(c4ncc(F)cc4OC)CC3)cc12 [Example I-525] was run?
A: < 100 nM

Q: CCc1cc(C)ncc1-c1cc(C2=CCCN(C(=O)CCc3nccs3)C2)c(F)c2[nH]c(C(=O)N3CCN(c4nc(C)ccc4OC)CC3)cc12 [Example I-526] was tested. Which IC50 did it give?
A: < 100 nM

Q: With CCc1nc(C)ccc1-c1cc(C(=O)N2CCN(c3ncc(F)cc3OC)CC2)cc2cc(C3=CCCN(C(=O)CCC(=O)O)C3)n(CC3CC3)c12 [Example I-527] as the compound, how does the IC50 read?
A: < 100 nM

Q: Which IC50 does the source give for CCc1cc(C)ncc1-c1cc(C2=CCCN(C(=O)CCn3ccnn3)C2)c(F)c2[nH]c(C(=O)N3Cc4cnn(CC)c4C3)cc12 [Example I-529] here?
A: < 100 nM

Q: CCn1ncc2c1CN(C(=O)c1cc(-c3ccccc3OC)c3c(c1)cc(C1=CCCN(C(=O)CCn4ccnn4)C1)n3CC1CC1)C2 [Example I-530] was tested. Which IC50 did it give?
A: < 100 nM

Q: For CCc1cc(C)ncc1-c1cc(C2=CCCN(C(=O)CCn3ccnn3)C2)c(F)c2[nH]c(C(=O)N3Cc4cnn(C)c4C3)cc12 [Example I-531], which IC50 is on record?
A: < 100 nM

Q: For COc1cc(F)cnc1N1CCN(C(=O)c2cc3c(C(F)F)cc(C4=CCCN(C(=O)CCn5ccnn5)C4)c(F)c3[nH]2)CC1 [Example I-532], which IC50 is on record?
A: < 100 nM

Q: CCc1cc(C)ncc1-c1cc(C(=O)N2CCN(c3ncc(F)cc3OC)CC2)cc2cc(C3=CCCN(C(=O)CCn4ccnn4)C3)n(CC3CC3)c12 [Example I-533] was tested. Which IC50 did it give?
A: < 100 nM

Q: CCc1nc(C)ccc1-c1cc(C(=O)N2CCN(c3ccc(F)cc3OC)CC2)cc2cc(C3=CCCN(C(=O)CCn4ccnn4)C3)n(CC3CC3)c12 [Example I-534] was tested. Which IC50 did it give?
A: > 100000 nM

Q: With CCc1nc(C)ccc1-c1cc(C(=O)N2Cc3cnn(CC)c3C2)cc2cc(C3=CCCN(C(=O)CCn4ccnn4)C3)n(CC3CC3)c12 [Example I-535] as the compound, how does the IC50 read?
A: > 100000 nM

Q: How did the IC50 turn out when CCc1cc(C)ncc1-c1cc(C2=CCCN(C(=O)CCn3ccnn3)C2)c(F)c2[nH]c(C(=O)N3CCN(C4CC4)CC3)cc12 [Example I-536] was run?
A: < 100 nM

Q: Which IC50 does the source give for CCc1cc(C)ncc1-c1cc(C2=CCCN(C(=O)CCn3cccn3)C2)c(F)c2[nH]c(C(=O)N3Cc4cnn(CC)c4C3)cc12 [Example I-537] here?
A: < 100 nM

Q: CCc1cc(C)ncc1-c1cc(C2=CCCN(C(=O)CCc3nccs3)C2)c(F)c2[nH]c(C(=O)N3Cc4cnn(CC)c4C3)cc12 [Example I-538] was tested. Which IC50 did it give?
A: < 100 nM

Q: For CCc1nc(C)ccc1-c1cc(C(=O)N2CCN(c3ncc(F)cc3OC)CC2)cc2cc(C3=CCCN(C(=O)C(C)C(=O)O)C3)n(CC3CC3)c12 (stereo not drawn) [Example I-539], which IC50 is on record?
A: < 100 nM

Q: For CCc1cn[nH]c1N1CCN(C(=O)c2cc3c(-c4cnccc4OC)cc(C4=CCCN(C(=O)CCn5ccnn5)C4)c(F)c3[nH]2)CC1 [Example I-540], which IC50 is on record?
A: < 100 nM

Q: COc1ccccc1-c1cc(C2=CCCN(C(=O)CCn3ccnn3)C2)c(F)c2[nH]c(C(=O)N3Cc4ncn(C)c4C3)cc12 [Example I-541] was tested. Which IC50 did it give?
A: < 100 nM

Q: Which IC50 does the source give for CCc1cnccc1-c1cc(C(=O)N2CCN(c3ncc(F)cc3OC)CC2)cc2cc(C3=CCCN(C(=O)CCn4ccnn4)C3)n(CC3CC3)c12 [Example I-542] here?
A: > 100000 nM

Q: For CCn1nccc1-c1cc(C(=O)N2Cc3cnn(CC)c3C2)cc2cc(C3=CCCN(C(=O)CCn4ccnn4)C3)n(CC3CC3)c12 [Example I-544], which IC50 is on record?
A: < 100 nM

Q: Which IC50 does the source give for CCc1ccc(-c2cc(C(=O)N3CCN(c4ncc(F)cc4OC)CC3)cc3cc(C4=CCCN(C(=O)C5CC5C(=O)O)C4)n(CC4CC4)c23)c(C)n1 (stereo not drawn) [Example I-545] here?
A: < 100 nM

Q: Which IC50 does the source give for CCc1nc(C)ccc1-c1cc(C(=O)N2CCN(c3nc(C)c(F)cc3OC)CC2)cc2cc(C3=CCCN(C(=O)CCn4ccnn4)C3)n(CC3CC3)c12 [Example I-546] here?
A: > 100000 nM

Q: CCc1nc(C)ccc1-c1cc(C(=O)N2CCN(C3CC3)CC2)cc2c(F)c(C3=CCCN(C(=O)CCn4ccnn4)C3)n(CC3CC3)c12 [Example I-548] was tested. Which IC50 did it give?
A: > 100000 nM

Q: With CCc1nc(C)ccc1-c1cc(C(=O)N2Cc3cnn(CC)c3C2)c(F)c2cc(C3=CCCN(C(=O)CCn4ccnn4)C3)n(CC3CC3)c12 [Example I-549] as the compound, how does the IC50 read?
A: > 100000 nM

Q: For CCc1ccc(-c2cc(C(=O)N3CCN(c4ncc(F)cc4OC)CC3)cc3cc(C4=CCCN(C(=O)C5CC5C(=O)O)C4)n(CC4CC4)c23)c(C)n1 (stereo not drawn) [Example I-550], which IC50 is on record?
A: > 100000 nM

Q: Which IC50 does the source give for CNc1ccc(-c2cc(C3=CCCN(C(=O)C4Cc5ccccc5CN4C=O)C3)cc3[nH]c(C(=O)N(C)C)cc23)cc1 (stereo not drawn) [Example I-551] here?
A: < 100 nM

Q: For COc1ccccc1-c1cc(C2=CCCN(C(C)=O)C2)c(F)c2sc(C(=O)N(C)C)cc12 [Example I-552], which IC50 is on record?
A: 100 to 1000 nM

Q: COc1ccccc1-c1cc(C2=CCCN(C(C)=O)C2)c(F)c2[nH]c(C(=O)N3CCN(c4ncccc4OC)CC3)cc12 [Example I-553] was tested. Which IC50 did it give?
A: 100 to 1000 nM

Q: Which IC50 does the source give for COc1cnccc1-c1cc(C2=CCCN(C(C)=O)C2)c(F)c2sc(C(=O)N(C)C)cc12 [Example I-554] here?
A: 100 to 1000 nM

Q: Which IC50 does the source give for COc1ccncc1-c1cc(C2=CCCN(C(C)=O)C2)c(F)c2sc(C(=O)N(C)C)cc12 [Example I-555] here?
A: 100 to 1000 nM

Q: COc1cccnc1N1CCN(C(=O)c2cc3c(-c4cnccc4OC4CC4)cc(C4=CCCN(C(=O)CCn5ccnn5)C4)c(F)c3[nH]2)CC1 [Example I-556] was tested. Which IC50 did it give?
A: < 100 nM

Q: Which IC50 does the source give for COc1cccnc1N1CCN(C(=O)c2cc3c(N4CCN(C)CC4)cc(C4=CCCN(C(=O)CCn5ccnn5)C4)c(F)c3[nH]2)CC1 [Example I-557] here?
A: < 100 nM

Q: For COc1cccnc1N1CCN(C(=O)c2cc3c(-c4ccccc4OC(F)(F)F)cc(C4=CCCN(C(=O)CCn5ccnn5)C4)c(F)c3[nH]2)CC1 [Example I-558], which IC50 is on record?
A: < 100 nM

Q: Which IC50 does the source give for COc1cc(F)c(F)cc1-c1cc(C2=CCCN(C(=O)CCn3ccnn3)C2)c(F)c2[nH]c(C(=O)N3CCN(c4ncccc4OC)CC3)cc12 [Example I-559] here?
A: < 100 nM

Q: Which IC50 does the source give for COc1cccnc1N1CCN(C(=O)c2cc3c(-c4cccc(C)c4OC)cc(C4=CCCN(C(=O)CCn5ccnn5)C4)c(F)c3[nH]2)CC1 [Example I-560] here?
A: < 100 nM

Q: With CCc1ccncc1-c1cc(C2=CCCN(C(=O)CCn3ccnn3)C2)c(F)c2[nH]c(C(=O)N3CCN(c4ncccc4OC)CC3)cc12 [Example I-561] as the compound, how does the IC50 read?
A: < 100 nM

Q: With CCc1ccccc1-c1cc(C2=CCCN(C(=O)CCn3ccnn3)C2)c(F)c2[nH]c(C(=O)N3CCN(c4ncccc4OC)CC3)cc12 [Example I-562] as the compound, how does the IC50 read?
A: < 100 nM
